The source of these data is patent US4020160A, “Cyclodextrin sulfate salts as complement inhibitors” (American Cyanamid Company, priority 1975, dated 1977).

Several values for one entry are separate records, joined by “and”; a condition that tells them apart may be missing. Equal values may be shown once. Where a name gives a salt, the structure may show the parent alone. Some results are limits rather than exact numbers.

The subject of one assay is complement system. The following applies: reported in literature; cited from earlier work.
For assay [1] the following is noted: reported in literature; cited from earlier work.
Assay [2] concerns late components of human complement (C3-C9). Briefly: Test, Code 035 (C3-C9 inhibitor), lysis of EAC 142. The note with it: higher well number indicates higher activity; serial dilutions two-fold. It is filed as biochemical. The source says:
(§1) This test measures the ability of activated human C1 to destroy fluid phase human C2 in the presence of C4 and appropriate dilutions of the test compound. An active inhibitor protects C2 from C1 and C4; (ii) Test, Code 035 (C3-C9 inhibitor) -- This test determines the ability of the late components of human complement (C3-C9) to lyse EAC 142 in the presence of appropriate dilutions of the test compound. An active inhibitor protects EAC 142 from lysis by human C3-C9; (iii) Test, Code 036 (C-Shunt inhibitor)-In this test human erythrocytes rendered fragile are lysed in autologous serum via the shunt pathway activated by cobra venom factor in the presence of appropriate dilutions of the test compound. Inhibition of the shunt pathway results in failure of lysis; (iv) Forssman Vasculitis Test -- Here, the well known complement dependent lesion, Forssman vasculitis, is produced in guinea pigs by intradermal injection of rabbit anti-Forssman antiserum. The lesion is measured in terms of diameter, edema and hemorrhage and the extent to which a combined index of these is inhibited by prior intraperitoneal injection of the test compound at 200 mg/kg is then reported, unless otherwise stated; (v) Forssman Shock Test -- Lethal shock is produced in guinea pigs by an i.v. injection of anti-Forssman antiserum and the harmonic mean death time of treated guinea pigs is compared with that of simultaneous controls; (vi) Complement Level Reduction Test -- In this test, the above dosed guinea pigs, or others, are bled for serum and the complement level is determined in undiluted serum by the capillary tube method of U.S. Pat. No. 3,876,376 and compared to undosed control guinea pigs; and (vii) Cap 50 Test -- Here, appropriate amounts of the test compound are added to a pool of guinea pig serum in vitro, after which the undiluted serum capillary tube assay referred to above is run. The concentration of compound inhibiting 50% is reported.

A further assay has as its target T1, activated human C1 (Homo sapiens, UniProt P09871).
T1 sequence (P09871 16-437 limits assumed): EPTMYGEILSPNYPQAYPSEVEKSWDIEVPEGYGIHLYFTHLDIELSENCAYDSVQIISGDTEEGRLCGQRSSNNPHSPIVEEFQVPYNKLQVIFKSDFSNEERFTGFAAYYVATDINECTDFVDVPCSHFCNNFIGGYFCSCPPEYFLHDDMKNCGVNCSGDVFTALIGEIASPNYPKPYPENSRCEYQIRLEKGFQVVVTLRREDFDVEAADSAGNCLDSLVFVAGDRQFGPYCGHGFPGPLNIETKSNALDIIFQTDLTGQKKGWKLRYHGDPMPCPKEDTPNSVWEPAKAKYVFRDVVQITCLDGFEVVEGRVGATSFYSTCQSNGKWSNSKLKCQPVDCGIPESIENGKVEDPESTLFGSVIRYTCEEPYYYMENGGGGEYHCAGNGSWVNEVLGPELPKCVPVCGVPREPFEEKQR
T1 sequence (P09871 438-688 limits assumed): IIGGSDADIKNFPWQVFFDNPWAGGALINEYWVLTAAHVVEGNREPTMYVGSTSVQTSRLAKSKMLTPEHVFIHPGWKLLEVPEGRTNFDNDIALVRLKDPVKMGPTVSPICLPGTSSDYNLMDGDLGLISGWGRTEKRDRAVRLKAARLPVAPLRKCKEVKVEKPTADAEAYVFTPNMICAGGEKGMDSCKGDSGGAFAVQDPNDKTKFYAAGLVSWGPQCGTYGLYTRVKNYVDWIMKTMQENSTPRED
Briefly: Test, Code 026 (C1 inhibitor). The note with it: higher well number indicates higher activity, serial dilutions two-fold. The format is biochemical.
Excerpt: as §1

In assay [3] the test system is shunt pathway activated by cobra venom factor. It is filed as cell-based, human. The note with it: higher well number indicates higher activity; serial dilutions two-fold.
Excerpt: as §1

Another assay concerns whole complement. Briefly: Complement Level Reduction Test (serum of dosed guinea pigs, capillary tube assay). The format is in vivo, guinea pig.
In assay [4] the test system is lethal shock by i.v. anti-Forssman antiserum. Briefly: Forssman Shock Test. The format is in vivo. The note with it: guinea pig, at 200 mg/kg; Control=3.15 min. As to the method: as §1, with “An active inhibitor protects EAC 142 from lysis by human C3-C9; (iii) Test, Code 036 (C-Shunt inhibitor)-In this test human erythrocytes rendered fragile are lysed in autologous serum via the shunt pathway activated by cobra venom factor in the presence of appropriate dilutions of the test compound. Inhibition of the shunt pathway results in failure of lysis; (iv) Forssman Vasculitis Test -- Here, the well known complement dependent lesion, Forssman vasculitis, is produced in guinea pigs by intradermal injection of rabbit anti-Forssman antiserum.” left out, “The concentration of compound inhibiting 50% is reported.” left out

Take `Nc1ccc2cc(S(=O)(=O)O)cc(O)c2c1N=Nc1ccc(NC(=O)Nc2ccc(N=Nc3c(N)ccc4cc(S(=O)(=O)O)cc(O)c34)c(S(=O)(=O)O)c2)cc1S(=O)(=O)O` [chlorazol fast pink, 3,3'-ureylenebis-[6-(2-amino-8-hydroxy-6-sulfo-1-naphthylazo)]benzenesulfonic acid tetrasodium salt]: the anticomplementary effect result in the assay with complement system is on record as “anticomplementary effect”.

With `NCCCCCC(=O)O` [epsilon-aminocaproic acid], the “treatment of hereditary angioneurotic edema” value in assay [1] is on record as “used with success”.

Take `NC[C@H]1CC[C@H](C(=O)O)CC1` [tranexamic acid]: the “treatment of hereditary angioneurotic edema” value in assay [1] was “used with success”.

For the molecule heparin, the anticomplementary effect entry in the assay on complement system is given as “anticomplementary effect”.

With “α-Cyclodextrin polysulfate triethylammonium salt”, in assay [2], the “035 (C3-C9 inhibitor) activity, wells of a two-fold serial dilution assay” value was “Neg”. Besides, on activated human C1, the “026 (C1 inhibitor) activity, wells of a two-fold serial dilution assay” value came out at 11 wells. In addition, the “036 (C-Shunt inhibitor) activity, wells of a two-fold serial dilution assay” value in assay [3] was 3 wells and 5 wells.

Consider α-cyclodextrin polysulfate sodium salt, for which the “035 (C3-C9 inhibitor) activity, wells of a two-fold serial dilution assay” value in assay [2] is listed as “Neg”. Besides, the “026 (C1 inhibitor) activity, wells of a two-fold serial dilution assay” value on activated human C1 is on record as 14 wells. Moreover, in assay [3], the “036 (C-Shunt inhibitor) activity, wells of a two-fold serial dilution assay” value was found to be 6 wells. Moreover, the “In vivo Activity (Guinea Pig) % Inhibition” value in the assay with whole complement (100 mg/kg i.v., time 2') came to 75%; with whole complement (100 mg/kg i.v., time 30'), 56%; with whole complement (100 mg/kg i.v., time 120') it was 39%; with whole complement (200 mg/kg i.p., time 30') it was 71%; in the assay with whole complement (200 mg/kg i.p., time 60') it was 28%; in the assay on whole complement (200 mg/kg i.p., time 120'), 72%. Further, the “Forsmann Shock, harmonic mean death time” value in assay [4] is recorded as 31.1 min.

As for “β-Cyclodextrin polysulfate potassium salt”, in assay [2], the “035 (C3-C9 inhibitor) activity, wells of a two-fold serial dilution assay” value is on record as “Neg”. Further, the “026 (C1 inhibitor) activity, wells of a two-fold serial dilution assay” value on activated human C1 stood at 10 wells. Also, in assay [3], the “036 (C-Shunt inhibitor) activity, wells of a two-fold serial dilution assay” value stood at 6 wells.

As for β-Cyclodextrin polysulfate sodium salt, at activated human C1 (sodium salt), the “026 (C1 inhibitor) activity, wells of a two-fold serial dilution assay” value was 12 wells and 11 wells and 10 wells. The “In vivo Activity (Guinea Pig) % Inhibition” value with whole complement (100 mg/kg i.v., time 2') is on record as 75%; with whole complement (100 mg/kg i.v., time 30'), 45%; with whole complement (100 mg/kg i.v., time 120'), 27%; with whole complement (200 mg/kg i.p., time 30') it was 49%; in the assay on whole complement (200 mg/kg i.p., time 60'), 29%; in the assay on whole complement (200 mg/kg i.p., time 120'), 67%. Further, the “Forsmann Shock, harmonic mean death time” value in assay [4] was more than 90 min.

In the case of “β-Cyclodextrin polysulfate triethylammonium salt”, the “035 (C3-C9 inhibitor) activity, wells of a two-fold serial dilution assay” value in assay [2] was “Neg”. Also, the “026 (C1 inhibitor) activity, wells of a two-fold serial dilution assay” value at activated human C1 was 10 wells. The “036 (C-Shunt inhibitor) activity, wells of a two-fold serial dilution assay” value in assay [3] is 4 wells and 6 wells.
